One assay deals with T1, HMG CoA-reductase enzyme (Homo sapiens, UniProt P04035).
T1 construct: First-line human liver cells (HUCPI) were cultured and treated with some compositions; endogenous in cells; host or cells: HUCPI first-line human liver cells
T1 sequence (P04035 1-888): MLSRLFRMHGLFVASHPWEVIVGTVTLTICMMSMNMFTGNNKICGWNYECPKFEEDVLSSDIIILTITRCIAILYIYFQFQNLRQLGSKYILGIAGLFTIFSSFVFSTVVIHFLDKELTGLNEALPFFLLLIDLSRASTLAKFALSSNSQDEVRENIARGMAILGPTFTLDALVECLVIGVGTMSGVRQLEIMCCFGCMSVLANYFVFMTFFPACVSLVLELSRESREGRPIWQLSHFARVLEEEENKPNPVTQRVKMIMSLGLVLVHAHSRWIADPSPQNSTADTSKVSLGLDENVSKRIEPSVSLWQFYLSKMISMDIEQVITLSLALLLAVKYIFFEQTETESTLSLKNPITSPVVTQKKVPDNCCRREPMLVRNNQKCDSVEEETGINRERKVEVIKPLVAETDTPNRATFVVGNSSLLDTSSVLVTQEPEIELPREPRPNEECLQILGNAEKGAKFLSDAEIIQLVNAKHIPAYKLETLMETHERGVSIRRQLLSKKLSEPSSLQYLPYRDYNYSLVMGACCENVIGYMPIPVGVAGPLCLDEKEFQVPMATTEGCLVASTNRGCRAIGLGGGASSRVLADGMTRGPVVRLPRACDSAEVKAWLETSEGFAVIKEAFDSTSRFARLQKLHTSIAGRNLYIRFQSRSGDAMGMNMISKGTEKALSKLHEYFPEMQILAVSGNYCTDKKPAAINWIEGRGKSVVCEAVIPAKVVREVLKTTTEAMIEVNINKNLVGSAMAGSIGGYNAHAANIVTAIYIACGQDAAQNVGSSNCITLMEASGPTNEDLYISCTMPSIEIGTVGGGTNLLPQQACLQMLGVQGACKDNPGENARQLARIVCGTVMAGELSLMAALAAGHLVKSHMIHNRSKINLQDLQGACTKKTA
The experiment in a line: HMG-CoA reductase activity in treated human liver cells (HUCPI), NADPH oxidation. It counts as cell-based. The settings on record: administered once in the 24-hour period, Figure 4.

The test system of another assay is PCSK9. In words: PCSK9 inhibition in HepG2 liver cells (mRNA levels by qRT-PCR). The settings on record: 40 µM berberine or 40 µM equivalent berberine, compared to the control. It counts as cell-based, human. As for the experimental part: Immortalized HepG2 human hepatocellular carcinoma cells were cultured and then treated with berberine extract, and the composition of Example 1. After treatment, the cells were lysed and the mRNA (messenger RNA) levels for PCSK9 expression were evaluated by qRT-PCR using human-specific PCR primers. For each sample, the measurements were carried out at least in triplicate and the results were reported as the average of the single values.
The efficacy of the invention composition was tested against HepG2 immortalized human hepatocarcinoma cells. […] The inhibition of the messenger RNA (mRNA) encoding the translation of the protein PCSK9 plays a key role in the mechanisms of action aimed at maximizing the hepatic reuptake of LDL cholesterol. […]
As it is possible to see in Figure 1, the mRNA levels related to PCSK9 expression of HepG2 cells are influenced by treatment with 40 µM of berberine, showing a reduction of about 25% after 6 hours and of 40% after 24 hours, compared to the control. […] In fact, a reduction of more than 40% was recorded after 6 hours from the treatment, while at 24 hours inhibition levels equal to about 60% were detected, due to a synergistic effect also of the other components present in the mixture, capable of influencing the PCSK9-LDLR metabolic pathway.
Background: In qPCR the cycle at which signal appears reflects the starting amount.

Procedure for HMG CoA-reductase enzyme: First-line human liver cells (HUCPI) were cultured and treated with some compositions, and with atorvastatin as a control, to evaluate the inhibition capacity of the HMG CoA-reductase enzyme. The enzymatic activity of HMG-CoA reductase was evaluated by measuring the dependent oxidation of NAPDH. For each sample, the measurements were carried out at least in triplicate, and the results were reported as the average of the single values.
The HUCPI cells were treated with the composition of Example 1 and with solutions of single extracts of Policosanols, and a mixture containing Policosanols, Oleuropein and Ipomea batata, in amounts equivalent to the ingredients of the composition of Example 1. After treatment, the cells were lysed and the catalytic fragment of the protein HMGR was cloned, overexpressed, and purified.

For the compound `CC(C)c1c(C(=O)Nc2ccccc2)c(-c2ccccc2)c(-c2ccc(F)cc2)n1CC[C@@H](O)C[C@@H](O)CC(=O)O` [atorvastatin], at HMG CoA-reductase enzyme, the “activity of HMRG” value is reported as “significantly reduced the activity of HMRG”. As for `COc1ccc2cc3[n+](cc2c1OC)CCc1cc2c(cc1-3)OCO2` [berberine], the “reduction of mRNA levels related to PCSK9 expression” value in the assay with PCSK9 (after 6 hours) is “about 25%”; in the assay with PCSK9 (after 24 hours), 40%.

The values above are taken from patent EP4260865B1, “COMPOSITION COMPRISING PLANT EXTRACTS FOR TREATING HYPERCHOLESTEROLEMIA” (Anvest Group S.r.l., priority 2022, dated 2023).
